{
  "source": "ChEMBL document CHEMBL1151535",
  "about": "“Oxiranes with quinoline substitution : Stereoselective synthesis and antiviral activity” (1996)",
  "format_in_all_cases": "functional",
  "key": {"[1]": {"system": "Encephalomyocarditis virus", "experiment": "In vitro antiviral activity against Encephalomyocarditis virus(EMCV) […], at the concentration 1000-1 ug/ml."}, "[2]": {"system": "Encephalomyocarditis virus", "experiment": "In vitro antiviral activity against Encephalomyocarditis virus(EMCV) […], at the concentration 7.8 ug/ml."}, "Mus musculus": {"system": "Mus musculus", "experiment": "In vivo antiviral activity against Encephalomyocarditis virus(EMCV) in mice, at the concentration 0.25 mg/mouse"}, "[3]": {"system": "Encephalomyocarditis virus", "experiment": "In vitro antiviral activity against Encephalomyocarditis virus(EMCV) […], at the concentration 15.6 ug/ml."}},
  "data": [
    {"compound": "Cc1cc(NNC(=O)[C@@H]2O[C@H]2c2ccncc2)nc2ccccc12", "values": [
      {"measurement": "Protection", "setting": "[1]", "result": 0, "unit": "%"}
    ]},
    {"compound": "Cc1cc(NNC(=O)[C@@H]2O[C@H]2c2cccc([N+](=O)[O-])c2)nc2ccccc12", "values": [
      {"measurement": "Protection", "setting": "[1]", "result": 0, "unit": "%"}
    ]},
    {"compound": "Cc1cc(NNC(=O)[C@@H]2O[C@H]2c2ccc3c(c2)OCO3)nc2ccccc12", "values": [
      {"measurement": "Protection", "setting": "[2]", "result": 75, "unit": "%"},
      {"measurement": "Protection", "setting": "Mus musculus", "result": 10, "unit": "%"}
    ]},
    {"compound": "COc1ccc([C@@H]2O[C@H]2C(=O)NNc2cc(C)c3ccccc3n2)cc1", "values": [
      {"measurement": "Protection", "setting": "[3]", "result": 75, "unit": "%"},
      {"measurement": "Protection", "setting": "Mus musculus", "result": 25, "unit": "%"}
    ]},
    {"compound": "Cc1cc(NNC(=O)CCl)nc2ccccc12", "values": [
      {"measurement": "Protection", "setting": "[1]", "result": 0, "unit": "%"}
    ]},
    {"compound": "Cc1cc(NNC(=O)[C@@H]2O[C@H]2c2ccc(Cl)cc2)nc2ccccc12", "values": [
      {"measurement": "Protection", "setting": "[1]", "result": 0, "unit": "%"}
    ]}
  ]
}
